Data as given in patent US12661360B2 (Tulex Pharmaceuticals Inc., priority 2023, dated 2026).
In brackets after ≈: the same amount, converted by molar mass.

Assay: Solubilities of lamotrigine in various non-aqueous solvents and purified water
Assay type: physicochemical

solubility (organic solvent or mixture, solvent Glycerin): 20.2 mg/mL (≈ 79 mM)
solubility (organic solvent or mixture, solvent PEG 400): > 30 mg/mL
solubility (organic solvent or mixture, solvent Polypropylene glycol 400): 10 to 20 mg/mL (≈ 39 to 78.1 mM)
solubility (organic solvent or mixture, solvent Propylene Glycol): 40.2 mg/mL (≈ 157 mM)
solubility (solvent Purified water): 0.31 mg/mL (≈ 1.21 mM)
SMILES: Nc1nnc(-c2cccc(Cl)c2Cl)c(N)n1 [lamotrigine, 3,5-diamino-6-(2,3-dichlorophenyl)-1,2,4-triazine]
